Laboratory results: patent US11199542B2, “Method for labeling specifically living bacteria comprising the use of modified non endogenous monosaccharide compounds” (priority 2015, dated 2021)

Legend:
[1] = test system: Enterococcus faecalis; experiment: Metabolic labeling of living bacteria, click chemistry and fluorescence microscopy; type: cell-based; parameters: key to labeling (fluorescence on membrane, metabolic incorporation of the chemical reporter): +: strains showing highly distinctive fluorescence on their membrane, indicative of an effective metabolic incorporation of the chemical reporter; −: the absence of labeling
[2] = test system: Escherichia coli K12; experiment: as above; type: cell-based; parameters: key: +: strains showing highly distinctive fluorescence on their membrane, indicative of an effective metabolic incorporation of the chemical reporter; −: the absence of labeling; conditions: compound 10 mM, 24 hours, fluorochrome-alkyne click 30 minutes
[3] = test system: Escherichia coli O86; experiment: as above; type: cell-based; parameters: key: +: strains showing highly distinctive fluorescence on their membrane, indicative of an effective metabolic incorporation of the chemical reporter; −: the absence of labeling; conditions: compound 10 mM, 24 hours, fluorochrome-alkyne click 30 minutes
[4] = test system: Klebsiella pneumoniae; experiment: as above; type: cell-based; parameters: key: +: strains showing highly distinctive fluorescence on their membrane, indicative of an effective metabolic incorporation of the chemical reporter; −: the absence of labeling; conditions: first of two entries (Table 1 order: CIP 101114), compound 10 mM, 24 hours, fluorochrome-alkyne click 30 minutes
[5] = test system: Klebsiella pneumoniae; experiment: as above; type: cell-based; parameters: key: +: strains showing highly distinctive fluorescence on their membrane, indicative of an effective metabolic incorporation of the chemical reporter; −: the absence of labeling; conditions: second of two entries (Table 1 order: Clinical strain), compound 10 mM, 24 hours, fluorochrome-alkyne click 30 minutes
[6] = test system: Legionella pneumophila sg6; type: cell-based; parameters: key: +: strains showing highly distinctive fluorescence on their membrane, indicative of an effective metabolic incorporation of the chemical reporter; −: the absence of labeling; conditions: compound 10 mM, 24 hours, fluorochrome-alkyne click 30 minutes
[7] = test system: Listeria monocytogenes ½; experiment: Metabolic labeling of living bacteria, click chemistry and fluorescence microscopy; type: cell-based; parameters: key to labeling (fluorescence on membrane, metabolic incorporation of the chemical reporter): +: strains showing highly distinctive fluorescence on their membrane, indicative of an effective metabolic incorporation of the chemical reporter; −: the absence of labeling
[8] = test system: Listeria monocytogenes ½a; experiment: as above; type: cell-based; parameters: key: +: strains showing highly distinctive fluorescence on their membrane, indicative of an effective metabolic incorporation of the chemical reporter; −: the absence of labeling; conditions: compound 10 mM, 24 hours, fluorochrome-alkyne click 30 minutes
[9] = test system: Micrococcus luteus; experiment: as above; type: cell-based; parameters: key to labeling (fluorescence on membrane, metabolic incorporation of the chemical reporter): +: strains showing highly distinctive fluorescence on their membrane, indicative of an effective metabolic incorporation of the chemical reporter; −: the absence of labeling
[10] = test system: Neisseria gonorrhoeae; experiment: as above; type: cell-based; parameters: key to labeling (fluorescence on membrane, metabolic incorporation of the chemical reporter): +: strains showing highly distinctive fluorescence on their membrane, indicative of an effective metabolic incorporation of the chemical reporter; −: the absence of labeling
[11] = test system: Neisseria meningitidis; experiment: as above; type: cell-based; parameters: key: +: strains showing highly distinctive fluorescence on their membrane, indicative of an effective metabolic incorporation of the chemical reporter; −: the absence of labeling; conditions: compound 10 mM, 24 hours, fluorochrome-alkyne click 30 minutes
[12] = test system: Proteus mirabilis; experiment: as above; type: cell-based; parameters: key: +: strains showing highly distinctive fluorescence on their membrane, indicative of an effective metabolic incorporation of the chemical reporter; −: the absence of labeling; conditions: compound 10 mM, 24 hours, fluorochrome-alkyne click 30 minutes
[13] = test system: Providenda stuartii; experiment: as above; type: cell-based, Providencia stuartii; parameters: key: +: strains showing highly distinctive fluorescence on their membrane, indicative of an effective metabolic incorporation of the chemical reporter; −: the absence of labeling; conditions: compound 10 mM, 24 hours, fluorochrome-alkyne click 30 minutes
[14] = test system: Pseudomonas fluorescens Migula; experiment: as above; type: cell-based; parameters: key: +: strains showing highly distinctive fluorescence on their membrane, indicative of an effective metabolic incorporation of the chemical reporter; −: the absence of labeling; conditions: compound 10 mM, 24 hours, fluorochrome-alkyne click 30 minutes
[15] = test system: Salmonella Typhimurium 12023; experiment: as above; type: cell-based; parameters: key: +: strains showing highly distinctive fluorescence on their membrane, indicative of an effective metabolic incorporation of the chemical reporter; −: the absence of labeling; conditions: compound 10 mM, 24 hours, fluorochrome-alkyne click 30 minutes
[16] = test system: Serratia marcescens; experiment: as above; type: cell-based; parameters: key: +: strains showing highly distinctive fluorescence on their membrane, indicative of an effective metabolic incorporation of the chemical reporter; −: the absence of labeling; conditions: first of two entries (Table 1 order: CIP102446), compound 10 mM, 24 hours, fluorochrome-alkyne click 30 minutes
[17] = test system: Serratia marcescens; experiment: as above; type: cell-based; parameters: key: +: strains showing highly distinctive fluorescence on their membrane, indicative of an effective metabolic incorporation of the chemical reporter; −: the absence of labeling; conditions: second of two entries (Table 1 order: Clinical strain), compound 10 mM, 24 hours, fluorochrome-alkyne click 30 minutes
[18] = test system: Staphylococcus aureus; experiment: as above; type: cell-based; parameters: key to labeling (fluorescence on membrane, metabolic incorporation of the chemical reporter): +: strains showing highly distinctive fluorescence on their membrane, indicative of an effective metabolic incorporation of the chemical reporter; −: the absence of labeling
[19] = test system: Staphylococcus aureus aureus; experiment: as above; type: cell-based; parameters: key to labeling (fluorescence on membrane, metabolic incorporation of the chemical reporter): +: strains showing highly distinctive fluorescence on their membrane, indicative of an effective metabolic incorporation of the chemical reporter; −: the absence of labeling
[20] = test system: Staphylococcus epidermis; experiment: as above; type: cell-based; parameters: key to labeling (fluorescence on membrane, metabolic incorporation of the chemical reporter): +: strains showing highly distinctive fluorescence on their membrane, indicative of an effective metabolic incorporation of the chemical reporter; −: the absence of labeling
[21] = test system: Stenotrophomonas maltophilia; experiment: as above; type: cell-based; parameters: key: +: strains showing highly distinctive fluorescence on their membrane, indicative of an effective metabolic incorporation of the chemical reporter; −: the absence of labeling; conditions: compound 10 mM, 24 hours, fluorochrome-alkyne click 30 minutes
[22] = test system: Vibrio cholerae; experiment: as above; type: cell-based; parameters: key: +: strains showing highly distinctive fluorescence on their membrane, indicative of an effective metabolic incorporation of the chemical reporter; −: the absence of labeling; conditions: compound 10 mM, 24 hours, fluorochrome-alkyne click 30 minutes
[23] = compound 10 mM, 24 hours, fluorochrome-alkyne click 30 minutes

[N-]=[N+]=NC[C@@H](O)[C@@H](O)[C@H](O)[C@H](O)CC(=O)C(=O)O [Kdo-N3, 8-azido-3,8-dideoxy-D-manno-octulosonate]
did not assimilate: assimilation by the bacteria (in words) [1] | assimilation by the bacteria (in words) ([7]; Listeria monocytogenes (strain not given)) | assimilation by the bacteria (in words) [9] | assimilation by the bacteria (in words) [10] | assimilation by the bacteria (in words) [18] | assimilation by the bacteria (in words) [19] | assimilation by the bacteria (in words) [20]
+: labeling (fluorescence on membrane, metabolic incorporation of the chemical reporter) [2] | labeling (fluorescence on membrane, metabolic incorporation of the chemical reporter) [3] | labeling (fluorescence on membrane, metabolic incorporation of the chemical reporter) [4] | labeling (fluorescence on membrane, metabolic incorporation of the chemical reporter) [5] | labeling (fluorescence on membrane, metabolic incorporation of the chemical reporter) [6] | labeling (fluorescence on membrane, metabolic incorporation of the chemical reporter) [11] | labeling (fluorescence on membrane, metabolic incorporation of the chemical reporter) [12] | labeling (fluorescence on membrane, metabolic incorporation of the chemical reporter) [13] | labeling (fluorescence on membrane, metabolic incorporation of the chemical reporter) [14] | labeling (fluorescence on membrane, metabolic incorporation of the chemical reporter) [15] | labeling (fluorescence on membrane, metabolic incorporation of the chemical reporter) [16] | labeling (fluorescence on membrane, metabolic incorporation of the chemical reporter) [17] | labeling (fluorescence on membrane, metabolic incorporation of the chemical reporter) [21] | labeling (fluorescence on membrane, metabolic incorporation of the chemical reporter) [22]
−: labeling (fluorescence on membrane, metabolic incorporation of the chemical reporter) [1, 23] | labeling (fluorescence on membrane, metabolic incorporation of the chemical reporter) ([7]; Listeria monocytogenes ½, compound 10 mM, 24 hours, fluorochrome-alkyne click 30 minutes) | labeling (fluorescence on membrane, metabolic incorporation of the chemical reporter) [8] | labeling (fluorescence on membrane, metabolic incorporation of the chemical reporter) [9, 23] | labeling (fluorescence on membrane, metabolic incorporation of the chemical reporter) [10, 23] | labeling (fluorescence on membrane, metabolic incorporation of the chemical reporter) [18, 23] | labeling (fluorescence on membrane, metabolic incorporation of the chemical reporter) [19, 23] | labeling (fluorescence on membrane, metabolic incorporation of the chemical reporter) [20, 23]
